Test results taken from article PMC6273209, “Evaluation of the Enantiomer Specific Biokinetics and Radiation Doses of [^18F]Fluspidine—A New Tracer in Clinical Translation for Imaging of σ1 Receptors” (Molecules, 2016).
Read-outs that look alike come from different tables or passages of the source.

Tests used:
[1] = imaging, cited from earlier work
[2] = cited from earlier work
[3] = cited from earlier work; remark: listed apart in the source
σ1 receptors = molecular target: σ1 receptors; design: method as in PMID 24130175; settings: read-out: Ki (affinity towards σ1 receptors); cited from earlier work
[4] = Acute toxicity study, single intravenous injection; type: in vivo; settings: Wistar rats
From the text: Supplementary Materials: Evaluation of the Enantiomer Specific Biokinetics and Radiation Doses of [18F]Fluspidine—A New Tracer in Clinical
Translation for Imaging of σ1 Receptors […]
Supplemental Methods and Results
Animal Toxicity Study of (S)-(−)-Fluspidine
The purpose of this study was to assess the acute toxicity of (S)-(−)-fluspidine when administered by a single intravenous injection to rats followed by an observation period of 2 or 15 day (in accordance with EU cGLP). Briefly, the study was performed with 4 test groups, including 1 control (saline and dimethylsulfoxide) and 3 dose groups (6.2, 62 and 620 µg/kg, (S)- (−)ﬂuspidine), with Wistar rats (60 m, 60 f, 12 weeks) divided into two experiments: day 2 (40 males and 40 females) and day 15 (20 males and 20 females). The animals were weighted and allocated to the test groups based on their actual body weights. The animals were sacrificed at two time periods (day 2 and day 15 after test item administration) and then examined macroscopically and histopathologically. In addition the following parameters were evaluated: mortality, clinical observation (spasms, tremor and hyperactivity), body weights, food consumption, haematology (white blood cells, red blood cells, hemoglobin, hematocrit, mean corpuscular volume, mean corpuscular hemoglobin, platelets, lympohcytes, neutrophils, eosinophils, basophils, monocytes), clinical chemistry (alkaline phosphatase, aspartate aminotransferase, alanine aminotransferase, glucose, cholesterol, triacylglycerols, creatinine, urea, bilirubin, albumin, calcium, phosphorus, sodium, potassium chloride), pathology and histopathology. […]
in either gender were detected. The food consumption corresponded with body weight development. All haematology parameter´s values on day 2 and day 15 were within physiological range for this species. Individual divergences of some values of the haematology parameters were slight and not connected with treatment.
There were no findings in clinical chemistry parameters which could be definitively considered as adverse. The average values of all test groups were within the historical control ranges. Occasional changes had no dose relationship, they were considered to be a result of intraindividual and interindividual variability for this species. […]
histopathological parameters on day 2 and day 15. The no observed effect level (NOEL) of (S)- (−)-fluspidine after single intravenous administration in this study for both day 2 and day 15 was determined to be 620 µg/kg.

[5] = design: method as in PMID 12573321, PMID 12589478; settings: cited from earlier work

In the case of `[18F]c1ccc(C2CC3CCCC2N3)cn1` (single isomer, unassigned; (+)) [(+)-[^18F]flubatine], the “ED Preclinical” value ([1]; piglets) is listed as 14.3 μSv/MBq, the “ED Preclinical” value ([2]; mouse, imaging) is listed as 12.1 μSv/MBq and the “ED Clinical” value [3] is listed as 23.0 μSv/MBq.

For `[18F]c1ncccc1OC[C@@H]1CCN1` [2-[^18F]F-A85380], the “ED Clinical” value [3] is listed as 19.4 μSv/MBq.

In the case of `FCC[C@H]1OC2(CCN(Cc3ccccc3)CC2)c2ccccc21` [(R)-(+)-[^18F]fluspidine], the Ki (σ1 receptors) is listed as 0.57 nM.

With `FCC[C@@H]1OC2(CCN(Cc3ccccc3)CC2)c2ccccc21` [(S)-(−)-fluspidine] the “body weights, control vs treated groups” value ([4]; single i.v. 6.2, 62 and 620 µg/kg, either gender) was “No statistically significant differences in body weights”, the “adverse findings in clinical chemistry parameters” value ([4]; single i.v.) was “no findings” and the “effect on haematology parameters” value ([4]; single i.v., day 2 and day 15) was “No test item effect”. For the same compound, the “toxicological changes in pathological and histopathological parameters” value ([4]; single intravenous administration, day 2 and day 15) was “did not cause toxicological changes” and the “no observed effect level (NOEL)” value ([4]; single intravenous administration, day 2 and day 15, highest tested dose) was 0.62 mg/kg.

In the case of `[18F]c1ccc([C@@H]2C[C@H]3CCC[C@@H]2N3)cn1` [(−)-[^18F]flubatine], the “ED Preclinical” value ([1]; piglet) is listed as 14.7 μSv/MBq, the “ED Preclinical” value ([2]; mouse) is listed as 12.5 μSv/MBq and the “ED Clinical” value [3] is listed as 23.4 μSv/MBq.

For `OC[C@H]1OC(O)[C@H]([18F])[C@@H](O)[C@@H]1O` (stereo partly shown) [[^18F]FDG], the “ED Clinical” value [3] is listed as 19.0 μSv/MBq.

In the case of `COc1ccc(OCC[18F])c(CN(C(C)=O)c2cc(F)ccc2Oc2ccccc2)c1` [[^18F]FEDAA1106], the “ED Preclinical” value ([2]; female mouse) is listed as 26.0 μSv/MBq, the “ED Preclinical” value ([2]; male mouse) is listed as 21.0 μSv/MBq and the “ED Clinical” value [3] is listed as 36 μSv/MBq.

In the case of `N[C@@H](Cc1ccc(OCC[18F])cc1)C(=O)O` [[^18F]FET], the “ED Preclinical” value [5] is given as 9.0 μSv/MBq and the “ED Clinical” value [3] is given as 16.5 μSv/MBq.
